Laboratory results from ChEMBL document CHEMBL4196047, “Discovery and evolution of aloperine derivatives as novel anti-filovirus agents through targeting entry stage” (Eur J Med Chem, 2018).
The source made the active and inactive calls. No cut-off for these calls is given here.

Tests used:
Ebolavirus [1] = experiment: microbe, parasite or virus in culture; format: functional, cell-based; details: Orthoebolavirus, HEK-293T
Marburgvirus [2] = experiment: microbe, parasite or virus in culture; format: functional, organism-based; details: Orthomarburgvirus, HEK-293T
[3] = test system: Vesicular stomatitis virus; experiment: microbe, parasite or virus in culture; format: functional, organism-based; details: HEK-293T
[4] = Tmax in BALB/c mouse at 25 mg/kg, po; format: ADME, organism-based; details: in vivo
[5] = Cmax in BALB/c mouse at 25 mg/kg, po; format: ADME, organism-based; set-up: dose 25 mg/kg, route oral; details: in vivo
[6] = AUC (0 to t) in BALB/c mouse at 25 mg/kg, po; format: ADME, organism-based; details: in vivo
[7] = AUC (0 to infinity) in BALB/c mouse at 25 mg/kg, po; format: ADME, organism-based; set-up: dose 25 mg/kg, time infinity, route oral; details: in vivo
[8] = MRT in BALB/c mouse at 25 mg/kg, po; format: ADME, organism-based; details: in vivo
[9] = Half life in BALB/c mouse at 25 mg/kg, po; format: ADME, organism-based; details: in vivo
[10] = Toxicity in ig dosed Kunming mouse administered as single dose measured for 7 days; format: organism-based; details: in vivo, po
[11] = Toxicity in ip dosed Kunming mouse administered as single dose measured for 7 days; format: organism-based; details: in vivo
[12] = Toxicity in iv dosed Kunming mouse administered as single dose measured for 7 days; format: organism-based; details: in vivo
Marburgvirus [13] = experiment: Antiviral activity against HIV1 pseudotyped MARV infected in BALB/c mouse at 100 ug, iv and ip measured at day 4 by bioluminescence assay relative to control; format: functional
Ebolavirus [14] = experiment: Antiviral activity against HIV1 pseudotyped EBOV infected in HEK293T cells assessed as inhibition of late stage viral entry at 25 uM treated for 1 hr before infection measured after 72 hrs by luciferase reporter gene assay relative to control; format: functional; details: Orthoebolavirus, HEK-293T
Ebolavirus [15] = experiment: Antiviral activity against HIV1 pseudotyped EBOV infected in HEK293T cells assessed as inhibition of late stage viral entry at 25 uM treated during infection measured after 72 hrs by luciferase reporter gene assay relative to control; format: functional; details: Orthoebolavirus, HEK-293T
Ebolavirus [16] = experiment: Antiviral activity against HIV1 pseudotyped EBOV infected in HEK293T cells assessed as inhibition of late stage viral entry at 25 uM treated for 1 hr post infection measured after 72 hrs by luciferase reporter gene assay relative to control; format: functional; details: Orthoebolavirus, HEK-293T
[17] = molecular target: Cathepsin B (Homo sapiens) (UniProt P07858); experiment: Inhibition of cathepsin B in HEK293 cells using N-benzyloxycarbonyl-L-arginyl-L-arginine-7-amido-4-methylcoumarin as substrate; format: cell-based
[18] = molecular target: Procathepsin L (Homo sapiens) (UniProt P07711); experiment: Inhibition of cathepsin L in HEK293 cells using N-benzyloxycarbonyl-L-phenylalanyl-L-arginine-7-amido-4-methylcoumarin as substrate; format: cell-based
Procathepsin L (Homo sapiens), sequence (P07711 114-333 limits assumed): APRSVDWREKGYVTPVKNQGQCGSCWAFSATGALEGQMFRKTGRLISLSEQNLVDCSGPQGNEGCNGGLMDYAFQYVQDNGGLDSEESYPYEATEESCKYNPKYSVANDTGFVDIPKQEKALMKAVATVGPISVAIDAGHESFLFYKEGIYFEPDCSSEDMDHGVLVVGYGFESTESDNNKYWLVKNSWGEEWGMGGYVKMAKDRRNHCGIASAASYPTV

HEK-293T [19] = experiment: Inhibition of endosomal acidification in HEK293T cells at 20 to 40 uM after 1 hr by LysoTracker Red dye-based confocal fluorescence microscopic analysis; format: functional, cell-based; details: Homo sapiens
in vitro [20] = details: human, HEK293T cells
in vitro [21] = details: human, HEK293T cells; remark: listed apart in the source
in vitro [22] = details: human, HEK293T cells; remark: listed apart in the source
HEK-293T [23] = experiment: Inhibition of endosomal acidification in HEK293T cells at […] after 1 hr by LysoTracker Red dye-based confocal fluorescence microscopic analysis; format: functional, cell-based; details: Homo sapiens

Clc1ccc(CN2CCCC3=C[C@H]4C[C@H](CN5CCCC[C@H]45)[C@@H]32)cc1Cl
EC50 (Ebolavirus [1]): 4.8 µM
EC50 (Marburgvirus [2]): 7.1 µM
EC50 [3]: > 200 µM
Tmax [4]: 0.67 h
Cmax [5]: 290 nM
AUC(0-t) [6]: 2.74 µM·h
AUC(0-inf) [7]: 4.89 µM·h
MRT [8]: 4.89 h
half-life [9]: 4.14 h
LD50 at 168 h [10]: 458 mg/kg
LD50 at 168 h [11]: > 100 mg/kg
LD50 at 168 h [12]: 28.3 mg/kg
Activity (Marburgvirus [13]): 45%
inhibition at 25 µM (Ebolavirus [14]): < 38%
inhibition at 25 µM (Ebolavirus [15]): 23 to 66%
inhibition at 25 µM (Ebolavirus [16]): 85%
inhibition [17]: Active
inhibition [18]: inactive
inhibition (HEK-293T [19]): inactive
CC50 (in vitro [20]): > 200 µM
selectivity ratio (in vitro [21]): > 41.7
selectivity ratio (in vitro [22]): > 28.2

O=C(c1cc(Cl)cc(Cl)c1)N1CCCC2=C[C@H]3C[C@H](CN4CCCC[C@H]34)[C@@H]21
EC50 (Ebolavirus [1]): 39.8 µM
EC50 (Marburgvirus [2]): 35.3 µM
EC50 [3]: > 200 µM
CC50 (in vitro [20]): > 200 µM
selectivity ratio (in vitro [21]): > 5
selectivity ratio (in vitro [22]): > 5.7

Clc1ccc(CCN2CCCC3=C[C@H]4C[C@H](CN5CCCC[C@H]45)[C@@H]32)cc1Cl
EC50 (Ebolavirus [1]): 6.8 µM
EC50 [3]: 44 µM
CC50 (in vitro [20]): 51.5 µM
selectivity ratio (in vitro [21]): 7.6

O=S(=O)(c1cccs1)N1CCCC2=C[C@H]3C[C@H](CN4CCCC[C@H]34)[C@@H]21
EC50 (Ebolavirus [1]): 33.2 µM
EC50 (Marburgvirus [2]): 62.4 µM
EC50 [3]: > 200 µM
CC50 (in vitro [20]): > 200 µM
selectivity ratio (in vitro [21]): > 6
selectivity ratio (in vitro [22]): > 3.2

Clc1ccc(CN2CCCC3=C[C@H]4C[C@H](CN5CCCC[C@H]45)[C@@H]32)c(Cl)c1
EC50 (Ebolavirus [1]): 6.6 µM
EC50 (Marburgvirus [2]): 6.4 µM
EC50 [3]: 10.6 µM
CC50 (in vitro [20]): > 200 µM
selectivity ratio (in vitro [21]): > 30.3
selectivity ratio (in vitro [22]): > 31.2

Cc1ccccc1CN1CCCC2=C[C@H]3C[C@H](CN4CCCC[C@H]34)[C@@H]21
EC50 (Ebolavirus [1]): 16.6 µM
EC50 (Marburgvirus [2]): 15 µM
EC50 [3]: 39 µM
CC50 (in vitro [20]): 162 µM
selectivity ratio (in vitro [21]): 9.7
selectivity ratio (in vitro [22]): 10.8

O=C(c1ccc(Cl)cc1)N1CCCC2=C[C@H]3C[C@H](CN4CCCC[C@H]34)[C@@H]21
EC50 (Ebolavirus [1]): 34.1 µM
EC50 (Marburgvirus [2]): 112 µM
EC50 [3]: 89.6 µM
CC50 (in vitro [20]): > 200 µM
selectivity ratio (in vitro [21]): > 5.9
selectivity ratio (in vitro [22]): > 1.8

COc1cccc(CN2CCCC3=C[C@H]4C[C@H](CN5CCCC[C@H]45)[C@@H]32)c1
EC50 (Ebolavirus [1]): 12.1 µM
EC50 (Marburgvirus [2]): 17.8 µM
EC50 [3]: 59 µM
CC50 (in vitro [20]): > 200 µM
selectivity ratio (in vitro [21]): > 16.5
selectivity ratio (in vitro [22]): > 11.2

Fc1ccc(CN2CCCC3=C[C@H]4C[C@H](CN5CCCC[C@H]45)[C@@H]32)cc1
EC50 (Ebolavirus [1]): 17 µM
EC50 (Marburgvirus [2]): 21.5 µM
EC50 [3]: 107 µM
CC50 (in vitro [20]): > 200 µM
selectivity ratio (in vitro [21]): > 11.8
selectivity ratio (in vitro [22]): > 9.3

FC(F)(F)Oc1ccc(CN2CCCC3=C[C@H]4C[C@H](CN5CCCC[C@H]45)[C@@H]32)cc1
EC50 (Ebolavirus [1]): 10.4 µM
EC50 (Marburgvirus [2]): 11.9 µM
EC50 [3]: 22.4 µM
CC50 (in vitro [20]): 82 µM
selectivity ratio (in vitro [21]): 7.9
selectivity ratio (in vitro [22]): 6.9

Clc1ccc(CN2CCCC3=C[C@H]4C[C@H](CN5CCCC[C@H]45)[C@@H]32)cc1
EC50 (Ebolavirus [1]): 11.9 µM
EC50 (Marburgvirus [2]): 9.8 µM
EC50 [3]: 77.8 µM
CC50 (in vitro [20]): > 200 µM
selectivity ratio (in vitro [21]): > 16.8
selectivity ratio (in vitro [22]): > 20.4

Clc1cc(Cl)cc(CCN2CCCC3=C[C@H]4C[C@H](CN5CCCC[C@H]45)[C@@H]32)c1
EC50 (Ebolavirus [1]): 5.7 µM
EC50 [3]: 42.5 µM
CC50 (in vitro [20]): 56 µM
selectivity ratio (in vitro [21]): 9.8

Clc1ccc(CCCN2CCCC3=C[C@H]4C[C@H](CN5CCCC[C@H]45)[C@@H]32)cc1
EC50 (Ebolavirus [1]): 7.1 µM
EC50 [3]: 49.9 µM
CC50 (in vitro [20]): 74.1 µM
selectivity ratio (in vitro [21]): 10.4

Clc1ccc(CCN2CCCC3=C[C@H]4C[C@H](CN5CCCC[C@H]45)[C@@H]32)cc1
EC50 (Ebolavirus [1]): 6 µM
EC50 [3]: 52.2 µM
CC50 (in vitro [20]): 83.3 µM
selectivity ratio (in vitro [21]): 13.9

C1=C2CCCN(Cc3ccccc3)[C@H]2[C@@H]2C[C@H]1[C@H]1CCCCN1C2
EC50 (Ebolavirus [1]): 15.2 µM
EC50 (Marburgvirus [2]): 22 µM
EC50 [3]: 28.3 µM
CC50 (in vitro [20]): 168 µM
selectivity ratio (in vitro [21]): 11
selectivity ratio (in vitro [22]): 7.6

O=S(=O)(c1ccc(Cl)c(Cl)c1)N1CCCC2=C[C@H]3C[C@H](CN4CCCC[C@H]34)[C@@H]21
EC50 (Ebolavirus [1]): 24.1 µM
EC50 (Marburgvirus [2]): 10.5 µM
EC50 [3]: 45.4 µM
CC50 (in vitro [20]): > 200 µM
selectivity ratio (in vitro [21]): > 8.3
selectivity ratio (in vitro [22]): > 19

Clc1cc(Cl)cc(CN2CCCC3=C[C@H]4C[C@H](CN5CCCC[C@H]45)[C@@H]32)c1
EC50 (Ebolavirus [1]): 8.1 µM
EC50 (Marburgvirus [2]): 8.5 µM
EC50 [3]: 34.3 µM
CC50 (in vitro [20]): 83.5 µM
selectivity ratio (in vitro [21]): 10.3
selectivity ratio (in vitro [22]): 9.8

O=C(c1ccc(Cl)c(Cl)c1)N1CCCC2=C[C@H]3C[C@H](CN4CCCC[C@H]34)[C@@H]21
EC50 (Ebolavirus [1]): 49 µM
EC50 (Marburgvirus [2]): 80.8 µM
EC50 [3]: 98.6 µM
CC50 (in vitro [20]): 200 µM
selectivity ratio (in vitro [21]): 4.1
selectivity ratio (in vitro [22]): 2.5

N#Cc1cccc(S(=O)(=O)N2CCCC3=C[C@H]4C[C@H](CN5CCCC[C@H]45)[C@@H]32)c1
EC50 (Ebolavirus [1]): 69.4 µM
EC50 (Marburgvirus [2]): 70.7 µM
EC50 [3]: > 200 µM
CC50 (in vitro [20]): > 200 µM
selectivity ratio (in vitro [21]): > 2.9
selectivity ratio (in vitro [22]): > 2.8

Clc1ccc(CCCN2CCCC3=C[C@H]4C[C@H](CN5CCCC[C@H]45)[C@@H]32)cc1Cl
EC50 (Ebolavirus [1]): 5.8 µM
EC50 [3]: 23 µM
CC50 (in vitro [20]): 29.3 µM
selectivity ratio (in vitro [21]): 5

C1=C2CCCN[C@H]2[C@@H]2C[C@H]1[C@H]1CCCCN1C2
EC50 (Ebolavirus [1]): 12.4 µM
EC50 (Marburgvirus [2]): 10.2 µM
EC50 [3]: 103 µM
CC50 (in vitro [20]): > 200 µM
selectivity ratio (in vitro [21]): > 16.1
selectivity ratio (in vitro [22]): > 19.6

O=S(=O)(c1ccc(Cl)cc1)N1CCCC2=C[C@H]3C[C@H](CN4CCCC[C@H]34)[C@@H]21
EC50 (Ebolavirus [1]): 21.8 µM
EC50 (Marburgvirus [2]): 18.8 µM
EC50 [3]: 104 µM
CC50 (in vitro [20]): > 200 µM
selectivity ratio (in vitro [21]): > 9.2
selectivity ratio (in vitro [22]): > 10.6

Cl.N
inhibition (HEK-293T [23]): Active

Clc1cc(Cl)cc(CCCN2CCCC3=C[C@H]4C[C@H](CN5CCCC[C@H]45)[C@@H]32)c1
EC50 (Ebolavirus [1]): 6.1 µM
EC50 [3]: 19.6 µM
CC50 (in vitro [20]): 25.9 µM
selectivity ratio (in vitro [21]): 4.2

O=S(=O)(c1cc(Cl)cc(Cl)c1)N1CCCC2=C[C@H]3C[C@H](CN4CCCC[C@H]34)[C@@H]21
EC50 (Ebolavirus [1]): 10.6 µM
EC50 (Marburgvirus [2]): 27.2 µM
EC50 [3]: 31.3 µM
CC50 (in vitro [20]): > 200 µM
selectivity ratio (in vitro [21]): > 18.9
selectivity ratio (in vitro [22]): > 7.4
